From patent US10266526B2, “Substituted 1,2,3-triazoles as SMYD inhibitors for treating cancer” (EPIZYME, INC., priority 2014, dated 2019) come the findings set out here.

Structures are written as SMILES. pIC50: −log10 of the molar value. Counter-ions that a name gives are not always drawn.

For experiment [1], the target named is T1, SMYD3 (Homo sapiens (Human), UniProt Q9H7B4). In words: SMYD3 biochemical assay (SMYD3 enzyme assay on MEKK2 protein substrate, 3H-SAM scintillation proximity assay). Conditions: read-out: SMYD3 Biochem IC50. The essentials: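 Native full-length human SMYD3, expressed in E. coli, was preincubated with compound for 30 min at room temperature in 25 mM Tris-Cl pH 8.0, 1 mM TCEP, 0.005% BSG and 0.005% Tween 20. ³H-SAM plus GST-MEKK2 then started the reaction. It was stopped with unlabeled SAM (100 uM final), and methylated MEKK2 was read by SPA.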
T1 sequence (Q9H7B4 whole entry): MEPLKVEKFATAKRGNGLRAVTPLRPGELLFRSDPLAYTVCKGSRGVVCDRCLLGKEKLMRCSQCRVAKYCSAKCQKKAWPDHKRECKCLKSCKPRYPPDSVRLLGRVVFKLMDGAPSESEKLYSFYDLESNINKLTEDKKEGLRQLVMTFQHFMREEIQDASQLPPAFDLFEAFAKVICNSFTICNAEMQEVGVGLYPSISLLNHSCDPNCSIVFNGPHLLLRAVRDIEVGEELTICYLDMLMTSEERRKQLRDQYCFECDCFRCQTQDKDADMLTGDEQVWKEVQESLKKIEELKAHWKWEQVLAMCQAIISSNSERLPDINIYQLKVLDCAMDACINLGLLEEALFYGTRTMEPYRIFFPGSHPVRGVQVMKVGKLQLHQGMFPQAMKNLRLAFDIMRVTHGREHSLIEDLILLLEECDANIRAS
For orientation: SPA uses beads or plates that emit light when radiolabelled molecules are held near them.

Experiment [2] deals with T1, SMYD3. In words: SMYD3 cell assay (Trimethyl-MEKK2 In-Cell Western in 293T/17 cells transfected with MEKK2-flag and SMYD3). The class given is cell-based. As to conditions: Table 3A; average of n = 1 to n = 50; read-out: SMYD3 cell IC50. The text has this: Trimethyl-MEKK2-in-Cell Western Assay
MEM/Glutamax medium, Optimem Reduced Serum medium, penicillin-streptomycin, 0.05% trypsin and 1×D-PBS were purchased from Life Technologies, Grand Island, N.Y., USA. PBS-10× was purchased from Ambion, Life Technologies, Grand Island, N.Y., USA. PBS with Tween 20 (PBST (10×)) was purchased from KPL, Gaithersburg, Md., USA. Tet System FBS-approved FBS US Source was purchased from Clontech, Mountain View, Calif., USA. Odyssey blocking buffer, 800CW goat anti-rabbit IgG (H+L) antibody, 680CW Goat anti-mouse IgG (H+L) and Licor Odyssey infrared scanner were purchased from Licor Biosciences, Lincoln, Nebr., USA. Tri-methyl-Lysine [A260]-MEKK2 antibody, MEKK2 and SMYD3 plasmids were made at Epizyme. Anti-flag monoclonal mouse antibody was purchased from Sigma, St. Louis, Mo., USA. Methanol was purchased from VWR, Franklin, Mass., USA. 10% Tween 20 was purchased from KPL, Inc., Gaithersburg, Md., USA. Fugene was purchased from Promega, Madison, Wis., USA. The Biotek ELx405 was purchased from BioTek, Winooski, Vt., USA. The multidrop combi was purchased from Thermo Scientific, Waltham, Mass., USA.
Cell Treatment, in Cell Western (ICW) for Detection of Trimethyl-Lysine-MEKK2 and MEKK2.
Plasmids were prepared for delivery to cells by first mixing 1350 μL Opti-MEM with Fugene (81 μL) in a sterile Eppendorf and incubated for five minutes at room temperature (RT). […] Entire volume of Opti-MEM/Fugene mixture was then added to a microfuge tube containing DNA plasmid, mixed and then incubated ×15 minutes at RT. […] Medium was then removed, and cells were washed once with PBS in the flask. Trypsin 0.05% (3 mL) was added and cells incubated for three minutes. Room temperature MEM+10% Tet system FBS was added and cells were mixed gently, and counted using the Vi-cell. Cells were seeded at 100,000 cells/mL in 50 μL MEM/10% Tet FBS/Pen/Strep to a 384 well black/clear poly-D-lysine coated plate containing test agent diluted in DMSO. The final top concentration of test compound was 40 μM. […] Plates were incubated ×30 minutes at RT in low-airflow area, followed by incubation at 37° C. under 5% CO2 for 24 hours. Medium was aspirated from all wells of assay plates prior to fixation and permeabilization with ice cold (−20° C.) methanol (90 μL/well) for ten minutes. Plates were rinsed with PBS three times on BioTek ELx405. PBS was removed with a final aspiration, and Odyssey blocking buffer (50 μL/well) was added to each well and incubated for one hour at RT. Primary antibody solution was prepared (anti-trimethyl-MEKK2 at 1:600 dilution plus mouse anti-flag antibody at 1:10,000 dilution in diluent (Odyssey Blocking buffer+0.1% Tween 20)) and 20 μL per well was dispensed using the Multidrop Combi. Assay plates were then sealed with foil, and incubated overnight at 4° C. Plates were washed five times with PBS-Tween (1×) on Biotek ELx405 and blotted on paper towel to remove excess reagent.
First, the ratio for each well was determined by:
Each plate included fourteen control wells of DMSO only treatment (Minimum Inhibition) as well as fourteen control wells for maximum inhibition (Background). The average of the ratio values for each control type was calculated and used to determine the percent inhibition for each test well in the plate. Reference compound was serially diluted two-fold in DMSO for a total of nine test concentrations, beginning at 40 μM. Percent inhibition was calculated (below).
Non-linear regression curves were generated to calculate the IC50 and dose-response relationship using triplicate wells per concentration of compound.

The mark [3] stands for this setting: Table 3A, average of n = 1 to n = 50.

For orientation: pIC50 means −log10 of the IC50, conventionally taken in molar units. For `O=C1Cc2cc(C(=O)N[C@H]3C[C@H]4CC[C@@H](C3)N4S(=O)(=O)CC3CCNCC3)ccc2N1` [compound 597, 2-oxo-N-((1R,3r,5S)-8-((piperidin-4-ylmethyl)sulfonyl)-8-azabicyclo[3.2.1]octan-3-yl)indoline-5-carboxamide], the pIC50 is 8.40 in experiment [1] (setting [3]) and 5.46 in experiment [2].
On to `O=C1Cc2cc(C(=O)N[C@H]3C[C@H]4CC[C@@H](C3)N4S(=O)(=O)C[C@H]3CCCNC3)c(Cl)cc2N1` [compound 598, 6-chloro-2-oxo-N-((1R,3S,5S)-8-((((S)-piperidin-3-yl)methyl)sulfonyl)-8-azabicyclo[3.2.1]octan-3-yl)indoline-5-carboxamide], for which the values for the pIC50 in experiment [1] (setting [3]) and in experiment [2] were 8.39 and 5.90, respectively.
In the same order, the values of `C[C@H]1C[C@@H](NC(=O)c2ccc3c(c2)CC(=O)N3)CCN1S(=O)(=O)CC1CCNCC1` [compound 599, N-((2S,4S)-2-methyl-1-((piperidin-4-ylmethyl)sulfonyl)piperidin-4-yl)-2-oxoindoline-5-carboxamide] are 8.35 and 5.02.
In the same order, the values of `O=C1Cc2cc(C(=O)N[C@H]3C[C@H]4CC[C@@H](C3)N4S(=O)(=O)C[C@@H]3CCCNC3)c(Cl)cc2N1` [compound 600, 6-chloro-2-oxo-N-((1R,3R,5S)-8-((((R)-piperidin-3-yl)methyl)sulfonyl)-8-azabicyclo[3.2.1]octan-3-yl)indoline-5-carboxamide] are 8.30 and 6.14.
In the same order, the values of `NC1CCN(S(=O)(=O)N2[C@@H]3CC[C@H]2C[C@@H](NC(=O)c2cc4c(cc2Br)NC(=O)C4)C3)CC1` [compound 602, N-((1R,3r,5S)-8-((4-aminopiperidin-1-yl)sulfonyl)-8-azabicyclo[3.2.1]octan-3-yl)-6-bromo-2-oxoindoline-5-carboxamide] are 8.15 and 5.43.
Consider `C[C@H]1CN(S(=O)(=O)N2CCC(N)CC2)CCC1NC(=O)c1cc2c(cc1Cl)NC(=O)C2` (stereo partly drawn) [compound 603, N-((3S)-1-((4-aminopiperidin-1-yl)sulfonyl)-3-methylpiperidin-4-yl)-6-chloro-2-oxoindoline-5-carboxamide], for which the pIC50 in experiment [1] (setting [3]) was 8.07; in experiment [2] it was 5.57.
Regarding `CN1C(=O)Cc2cc(C(=O)N[C@H]3C[C@H]4CC[C@@H](C3)N4S(=O)(=O)N3CCC(N)CC3)c(Cl)cc21` [compound 604, N-((1R,3r,5S)-8-((4-aminopiperidin-1-yl)sulfonyl)-8-azabicyclo[3.2.1]octan-3-yl)-6-chloro-1-methyl-2-oxoindoline-5-carboxamide], the pIC50 in experiment [1] (setting [3]) was 7.87; in experiment [2], 6.68.
As for `CCc1cc(C(=O)N[C@H]2CCN(S(=O)(=O)N3CCC(N)CC3)[C@@H](C)C2)ns1` [compound 605, N-((2S,4S)-1-(4-aminopiperidin-1-ylsulfonyl)-2-methylpiperidin-4-yl)-5-ethyl-1,2-thiazole-3-carboxamide Hydrochloride], the pIC50 in experiment [1] is 7.81; in experiment [2], 6.70.
`Cc1cc2c(cc1C(=O)N[C@H]1C[C@H]3CC[C@@H](C1)N3S(=O)(=O)N1CCC(N)CC1)CC(=O)N2` [compound 606, N-((1R,3r,5S)-8-((4-aminopiperidin-1-yl)sulfonyl)-8-azabicyclo[3.2.1]octan-3-yl)-6-methyl-2-oxoindoline-5-carboxamide]: the figures for the pIC50 in experiment [1] (setting [3]) and in experiment [2] were 7.81 and 5.75, respectively.
Take `C[C@H]1C[C@@H](NC(=O)c2nnc(C3CC3)s2)CCN1S(=O)(=O)N1CCC(N)CC1` [compound 607, N-((2S,4S)-1-((4-aminopiperidin-1-yl)sulfonyl)-2-methylpiperidin-4-yl)-5-cyclopropyl-1,3,4-thiadiazole-2-carboxamide]: the negative-log IC50 (pIC50) in experiment [1] (setting [3]) was 7.74; in experiment [2], 6.69.
As to `C[C@@H]1CN(S(=O)(=O)N2CCC(N)CC2)CC[C@H]1NC(=O)c1cc2c(cc1Cl)NC(=O)C2` [compound 608, N-((3R,4R)-1-((4-aminopiperidin-1-yl)sulfonyl)-3-methylpiperidin-4-yl)-6-chloro-2-oxoindoline-5-carboxamide], the pIC50 was 7.67 in experiment [1] (setting [3]) and 5.21 in experiment [2].
Take `NC1CCN(S(=O)(=O)N2[C@@H]3CC[C@H]2C[C@@H](NC(=O)c2ccc4c(c2)NC(=O)CO4)C3)CC1` [compound 609, N-((1R,3r,5S)-8-(4-aminopiperidin-1-ylsulfonyl)-8-aza-bicyclo[3.2.1]octan-3-yl)-3-oxo-3,4-dihydro-2H-benzo[b][1,4]oxazine-6-carboxamide Hydrochloride]: the figures for the pIC50 in experiment [1] (setting [3]) and in experiment [2] were 7.63 and 5.43, respectively.
The like results for `CN1C(=O)Cc2cc(C(=O)N[C@H]3C[C@H]4CC[C@@H](C3)N4S(=O)(=O)CC3CCNCC3)ccc21` [compound 611, 1-methyl-2-oxo-N-((1R,3r,5S)-8-((piperidin-4-ylmethyl)sulfonyl)-8-azabicyclo[3.2.1]octan-3-yl)indoline-5-carboxamide] were, in that order, 7.59 and 5.41.
`CC(C)(N)c1ccc(S(=O)(=O)N2[C@@H]3CC[C@H]2C[C@@H](NC(=O)c2ccc4c(c2)CC(=O)N4)C3)cc1` [compound 612, N-((1R,3r,5S)-8-((4-(2-aminopropan-2-yl)phenyl)sulfonyl)-8-azabicyclo[3.2.1]octan-3-yl)-2-oxoindoline-5-carboxamide]: the pIC50 in experiment [1] (setting [3]) is 7.51; in experiment [2], 5.60.
The like results for `CC(C)(N)c1ccc(S(=O)(=O)N2[C@@H]3CC[C@H]2C[C@@H](NC(=O)c2cc4c(cc2Cl)NC(=O)C4)C3)cc1` [compound 613, N-((1R,3r,5S)-8-((4-(2-aminopropan-2-yl)phenyl)sulfonyl)-8-azabicyclo[3.2.1]octan-3-yl)-6-chloro-2-oxoindoline-5-carboxamide] were, in that order, 7.43 and 5.75.
As for `O=C1Cc2cc(C(=O)N[C@H]3C[C@H]4CC[C@@H](C3)N4S(=O)(=O)CCN3CCCC3)c(Cl)cc2N1` [compound 614, 6-chloro-2-oxo-N-((1R,3r,5S)-8-((2-(pyrrolidin-1-yl)ethyl)sulfonyl)-8-azabicyclo[3.2.1]octan-3-yl)indoline-5-carboxamide], the results for the pIC50 in experiment [1] (setting [3]) and in experiment [2] were 7.34 and 6.42, respectively.
As for `O=C1Cc2cc(C(=O)N[C@H]3C[C@H]4CC[C@@H](C3)N4S(=O)(=O)CCN3CCCC3)ccc2N1` [compound 615, 2-oxo-N-((1R,3r,5S)-8-((2-(pyrrolidin-1-yl)ethyl)sulfonyl)-8-azabicyclo[3.2.1]octan-3-yl)indoline-5-carboxamide], the pIC50 in experiment [1] was 7.30; in experiment [2], 6.12.
Take `CCc1cnnc(C(=O)N[C@H]2C[C@H]3CC[C@@H](C2)N3S(=O)(=O)N2CCC(N)CC2)c1` [compound 616, N-[(1R,3r,5S)-8-(4-aminopiperidine-1-sulfonyl)-8-azabicyclo[3.2.1]octan-3-yl]-5-ethylpyridazine-3-carboxamide Trifluoroacetate]: the values for the pIC50 in experiment [1] and in experiment [2] were 7.30 and 6.27, respectively.
For `CN1C(=O)Cc2cc(C(=O)N[C@H]3C[C@H]4CC[C@@H](C3)N4S(=O)(=O)CC3CCNCC3)c(Cl)cc21` [compound 617, 6-chloro-1-methyl-2-oxo-N-((1R,3r,5S)-8-((piperidin-4-ylmethyl)sulfonyl)-8-azabicyclo[3.2.1]octan-3-yl)indoline-5-carboxamide], the pIC50 was 7.28 in experiment [1] (setting [3]) and 5.53 in experiment [2].
